Drawing on BindingDB's records for doi:10.1016/0960-894X(96)00186-2 (1996), this text covers IC50 for 1 compound.

Experiment [1] is described as follows: Compound was tested for binding activity against Opioid receptor kappa 1 in bovine striatal membranes using 1 nM [3H]U-69593 as the radioligand.
Experiment [2] can be described thus: Compound was tested for binding activity against Opioid receptor delta 1 in bovine striatal membranes using 0.2 nM [3H]p-CI-DPDPE as the radioligand.

For orientation: IC50 means the concentration that inhibits the measured activity by half. Lower therefore signals inhibition by little substance. On to `O=C(CSSCC(=O)N[C@@]12CCC(=O)[C@@H]3Oc4c(O)ccc5c4[C@@]31CCN(CC1CCC1)[C@@H]2C5)N[C@@]12CCC(=O)[C@@H]3Oc4c(O)ccc5c4[C@@]31CCN(CC1CCC1)[C@@H]2C5` [N-CBM-TAMO], for which the IC50 was 6.3 nM in experiment [1] and 12 nM in experiment [2].
